Experimental data from ChEMBL document CHEMBL1201862, “PubChem BioAssay data set” (2004).
Calls of active or inactive are those of the source.

Assays:
[1] = HeLa cell cytotoxicity, dose response, cytotoxicity control for MgcRacGAP inhibitor project (AID 624300); type: functional
[2] = biological target: T1, Rac GTPase-activating protein 1 (Homo sapiens, UniProt Q9H0H5); experiment: MgcRacGAP GTPase-activating activity inhibitors, confirmation, biochemical, ADP Hunter fluorescence, primary and confirmatory (AID 624330); type: functional
T1 sequence (Q9H0H5 whole entry): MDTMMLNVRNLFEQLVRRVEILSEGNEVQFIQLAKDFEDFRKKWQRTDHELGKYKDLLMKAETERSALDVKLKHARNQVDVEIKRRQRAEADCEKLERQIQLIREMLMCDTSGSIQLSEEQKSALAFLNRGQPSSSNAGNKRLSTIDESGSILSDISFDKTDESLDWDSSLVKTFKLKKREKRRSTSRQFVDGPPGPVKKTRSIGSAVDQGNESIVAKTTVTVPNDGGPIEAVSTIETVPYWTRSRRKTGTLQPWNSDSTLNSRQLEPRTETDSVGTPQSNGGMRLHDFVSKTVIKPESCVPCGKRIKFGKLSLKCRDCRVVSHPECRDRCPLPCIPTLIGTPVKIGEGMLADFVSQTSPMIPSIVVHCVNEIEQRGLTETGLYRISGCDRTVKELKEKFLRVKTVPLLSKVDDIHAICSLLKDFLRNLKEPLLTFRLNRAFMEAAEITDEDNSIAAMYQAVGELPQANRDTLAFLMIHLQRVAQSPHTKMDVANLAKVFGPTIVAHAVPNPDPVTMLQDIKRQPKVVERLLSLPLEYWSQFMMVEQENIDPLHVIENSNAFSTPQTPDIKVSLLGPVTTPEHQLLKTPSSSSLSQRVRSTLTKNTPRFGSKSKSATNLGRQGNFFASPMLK

[3] = tested on: BJ; experiment: cytotoxicity toward BJ-TERT fibroblasts, dose response, cell-based, RAS-independent, luminescence (AID 1933); type: functional; settings: Homo sapiens
[4] = tested on: BJ; experiment: cells; type: functional, cell-based; settings: Homo sapiens
[5] = biological target: Luciferin 4-monooxygenase (Photinus pyralis, UniProt P08659); experiment: firefly luciferase enzyme inhibitors, dose response, biochemical, luminescence (AID 1891)
[6] = Luminescence Cell-Based Dose Confirmation HTS to Identify Inhibitors of Platelet Dense Granule Release. [Related pubchem assays: 1663 (Primary HTS), 1678 (Summary of Project)]; type: functional
[7] = tested on: BJ; experiment: cytotoxicity toward BJ-TERT-LT-ST fibroblasts, dose response, cell-based, RAS-independent, luminescence (AID 1935); type: functional; settings: Homo sapiens;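 further: BJ fibroblasts immortalized with TERT plus LT and ST oncogenes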
[8] = cytotoxicity toward DRD oncogenic fibroblasts, dose response, cell-based, non-viral oncogenic, luminescence (AID 1934); type: functional; settings: Homo sapiens
[9] = tested on: HEK293; experiment: inhibitors of LMP1-driven NF-kB reporter, dose response, cell-based, HEK293, luciferase, cherry-pick (AID 588343); type: functional; settings: Homo sapiens
[10] = biological target: Cytochrome P450 2C19 (Homo sapiens, UniProt P33261); experiment: Cytochrome panel assay with activity outcomes. Panel member name: p450-cyp2c19 Compounds with AC50 equal or less than 10 uM are considered active; type: functional
[11] = biological target: T2, Cytochrome P450 1A2 (Homo sapiens, UniProt P05177);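 further: PubChem cytochrome P450 panel assay, CYP1A2 panel member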
T2 sequence (P05177 whole entry): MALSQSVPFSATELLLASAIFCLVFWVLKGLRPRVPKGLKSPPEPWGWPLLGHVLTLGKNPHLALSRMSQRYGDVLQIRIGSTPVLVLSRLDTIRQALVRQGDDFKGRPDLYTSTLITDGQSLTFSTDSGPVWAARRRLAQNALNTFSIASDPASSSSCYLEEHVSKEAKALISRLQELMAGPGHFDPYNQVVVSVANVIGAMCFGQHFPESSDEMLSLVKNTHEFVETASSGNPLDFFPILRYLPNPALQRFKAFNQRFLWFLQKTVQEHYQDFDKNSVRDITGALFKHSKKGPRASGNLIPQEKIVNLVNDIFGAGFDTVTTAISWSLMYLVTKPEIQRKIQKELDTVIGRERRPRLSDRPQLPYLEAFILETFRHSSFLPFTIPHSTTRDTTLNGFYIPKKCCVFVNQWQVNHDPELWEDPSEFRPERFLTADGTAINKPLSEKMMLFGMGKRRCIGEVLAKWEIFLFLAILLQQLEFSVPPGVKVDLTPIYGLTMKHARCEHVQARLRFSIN

[12] = biological target: Cytochrome P450 3A4 (Homo sapiens, UniProt P08684);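 further: CYP3A4 tested as one member of a cytochrome P450 panel screen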
[13] = biological target: Cytochrome P450 2C9 (Homo sapiens, UniProt P11712)
[14] = NIH-3T3 fibroblast cytotoxicity, dose response, cytotoxicity control, cell-based, fluorescence, Alamar Blue, secondary assay (AID 2327); type: functional;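 further: NIH-3T3 mouse fibroblasts cultured with fluconazole at 8 µg/mL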
[15] = C. albicans growth with fluconazole, confirmation, fluorescence, retest (AID 2467); type: functional, cell-based
[16] = inhibitors of intracellular T. cruzi replication, confirmation, NIH3T3 host cells, beta-gal luminescence (AID 2044); type: functional, cell-based;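 further: intracellular parasites grown in NIH/3T3 mouse fibroblasts as host cells; luminescent beta-galactosidase reporter signal from transgenic T. cruzi replicating inside host cells; inhibitors lower the luminescence signal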
[17] = cytotoxicity toward NIH3T3 fibroblasts, dose response, counter-screen, cell-based, ATP luminescence, mouse fibroblasts (AID 2010); type: functional;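 further: cells exposed to compound for about 90 hours before reading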
[18] = tested on: H9c2; experiment: cells; type: functional, cell-based; settings: Rattus norvegicus, H9c2, Myocardium;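 further: confirmatory concentration-response retest of ultra-high-throughput screening hits for modulation of myocardial damage; cell death induced by hydrogen peroxide oxidative stress; compound pretreatment for 60 min then peroxide exposure for 2 h; potency is for protecting the cells against peroxide damage rather than for killing them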
[19] = biological target: T3, DNA repair and recombination protein RAD54-like (Homo sapiens, UniProt Q92698); experiment: inhibitors of human RAD54 branch migration, confirmation, biochemical, fluorescence, cherry-picked samples, dose series (AID 651657); type: functional
T3 sequence (Q92698 whole entry): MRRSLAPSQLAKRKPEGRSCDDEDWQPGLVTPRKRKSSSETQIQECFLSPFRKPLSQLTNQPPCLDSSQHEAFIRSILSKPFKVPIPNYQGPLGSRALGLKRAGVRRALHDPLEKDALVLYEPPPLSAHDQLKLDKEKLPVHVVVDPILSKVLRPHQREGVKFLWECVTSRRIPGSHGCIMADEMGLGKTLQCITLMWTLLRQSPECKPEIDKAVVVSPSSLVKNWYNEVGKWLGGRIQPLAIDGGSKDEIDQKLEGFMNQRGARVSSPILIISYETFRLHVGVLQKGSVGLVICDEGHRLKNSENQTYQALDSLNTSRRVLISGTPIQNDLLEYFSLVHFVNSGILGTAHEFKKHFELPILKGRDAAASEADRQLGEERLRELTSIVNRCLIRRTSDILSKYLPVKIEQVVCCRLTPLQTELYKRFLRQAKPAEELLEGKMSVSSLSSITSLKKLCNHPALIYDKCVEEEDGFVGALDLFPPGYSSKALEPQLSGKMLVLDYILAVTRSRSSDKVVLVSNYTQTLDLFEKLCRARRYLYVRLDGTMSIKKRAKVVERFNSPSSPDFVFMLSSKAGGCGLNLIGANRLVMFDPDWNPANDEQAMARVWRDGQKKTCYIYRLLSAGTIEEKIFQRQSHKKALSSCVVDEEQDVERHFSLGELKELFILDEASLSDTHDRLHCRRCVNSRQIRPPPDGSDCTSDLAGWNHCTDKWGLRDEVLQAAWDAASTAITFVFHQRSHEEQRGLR

[20] = biological target: Cytochrome P450 2D6 (Homo sapiens, UniProt P10635);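 further: CYP2D6 member of a cytochrome P450 panel assay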
[21] = tested on: INS1; experiment: beta cell apoptosis inhibitors, cytokine rescue, dose response, luminescence, retest (AID 449756); type: functional, cell-based; settings: Rattus norvegicus;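 further: cell death triggered by IL-1 beta plus TNF-alpha plus IFN-gamma mixture; protective hits raise ATP signal compared with cytokine alone wells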
[22] = biological target: T4, Heat shock factor protein 1 (Mus musculus, UniProt P38532); experiment: HSF1 potentiators in luciferase reporter cells, confirmation, cell-based, NIH3T3, luminescence, dose retest (AID 435004); type: functional;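 further: stress induced by proteasome inhibitor MG132 added 30 min after compound; luciferase reporter driven by HSF1 response element in NIH3T3 cells; actives raise luminescence as potentiators of the MG132 stress response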
T4 sequence (P38532 whole entry): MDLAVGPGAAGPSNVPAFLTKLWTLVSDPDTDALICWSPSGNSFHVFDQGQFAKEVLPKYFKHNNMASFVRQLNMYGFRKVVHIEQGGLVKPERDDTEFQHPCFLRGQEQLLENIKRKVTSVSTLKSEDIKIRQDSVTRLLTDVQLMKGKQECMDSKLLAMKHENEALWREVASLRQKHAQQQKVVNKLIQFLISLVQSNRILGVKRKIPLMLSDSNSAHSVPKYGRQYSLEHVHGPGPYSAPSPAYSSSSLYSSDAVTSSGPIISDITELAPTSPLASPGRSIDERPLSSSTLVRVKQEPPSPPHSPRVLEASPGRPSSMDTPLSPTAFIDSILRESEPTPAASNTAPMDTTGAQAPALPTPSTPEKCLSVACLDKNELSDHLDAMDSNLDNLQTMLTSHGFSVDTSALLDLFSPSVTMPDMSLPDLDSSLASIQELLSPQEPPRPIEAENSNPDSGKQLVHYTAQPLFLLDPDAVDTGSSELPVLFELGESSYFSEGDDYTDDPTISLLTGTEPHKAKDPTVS

[23] = Luminescence Cell-Based Dose Retest to Confirm Inhibitors of Cancer Stem Cells. [Related pubchem assays (depositor defined):AID2717, AID2721]; type: functional; settings: Homo sapiens
[24] = biological target: T5, DNA repair protein RAD52 homolog (Homo sapiens, UniProt P43351); type: functional, biochemical
T5 sequence (P43351 whole entry): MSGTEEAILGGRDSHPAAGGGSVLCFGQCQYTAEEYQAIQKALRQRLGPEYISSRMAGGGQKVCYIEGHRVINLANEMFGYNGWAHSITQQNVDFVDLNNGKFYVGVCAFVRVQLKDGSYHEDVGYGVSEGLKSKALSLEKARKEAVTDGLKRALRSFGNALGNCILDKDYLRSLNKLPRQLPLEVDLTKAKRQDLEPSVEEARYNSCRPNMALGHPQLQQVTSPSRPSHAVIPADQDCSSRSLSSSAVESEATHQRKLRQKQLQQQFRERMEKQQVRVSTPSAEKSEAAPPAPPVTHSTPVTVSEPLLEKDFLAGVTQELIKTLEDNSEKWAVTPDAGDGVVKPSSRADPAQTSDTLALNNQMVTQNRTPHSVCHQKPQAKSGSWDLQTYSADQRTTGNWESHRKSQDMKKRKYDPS

[25] = tested on: Vero; experiment: cells; type: functional; settings: Chlorocebus sabaeus

Sequence of Cytochrome P450 2C9 (P11712 whole entry): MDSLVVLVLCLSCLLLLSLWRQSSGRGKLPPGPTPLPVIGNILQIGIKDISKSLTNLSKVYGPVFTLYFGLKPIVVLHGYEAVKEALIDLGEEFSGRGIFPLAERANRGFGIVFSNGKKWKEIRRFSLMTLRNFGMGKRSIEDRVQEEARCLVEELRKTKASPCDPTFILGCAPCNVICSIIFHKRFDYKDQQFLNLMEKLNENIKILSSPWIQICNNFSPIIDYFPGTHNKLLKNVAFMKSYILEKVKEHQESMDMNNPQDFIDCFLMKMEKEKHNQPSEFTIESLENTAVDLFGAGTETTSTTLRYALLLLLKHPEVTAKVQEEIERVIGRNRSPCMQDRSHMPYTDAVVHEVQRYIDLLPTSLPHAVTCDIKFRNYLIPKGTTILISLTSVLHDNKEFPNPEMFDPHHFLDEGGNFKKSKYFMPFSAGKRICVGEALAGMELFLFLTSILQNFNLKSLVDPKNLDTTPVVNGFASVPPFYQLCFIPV
Sequence of Cytochrome P450 2C19 (P33261 whole entry): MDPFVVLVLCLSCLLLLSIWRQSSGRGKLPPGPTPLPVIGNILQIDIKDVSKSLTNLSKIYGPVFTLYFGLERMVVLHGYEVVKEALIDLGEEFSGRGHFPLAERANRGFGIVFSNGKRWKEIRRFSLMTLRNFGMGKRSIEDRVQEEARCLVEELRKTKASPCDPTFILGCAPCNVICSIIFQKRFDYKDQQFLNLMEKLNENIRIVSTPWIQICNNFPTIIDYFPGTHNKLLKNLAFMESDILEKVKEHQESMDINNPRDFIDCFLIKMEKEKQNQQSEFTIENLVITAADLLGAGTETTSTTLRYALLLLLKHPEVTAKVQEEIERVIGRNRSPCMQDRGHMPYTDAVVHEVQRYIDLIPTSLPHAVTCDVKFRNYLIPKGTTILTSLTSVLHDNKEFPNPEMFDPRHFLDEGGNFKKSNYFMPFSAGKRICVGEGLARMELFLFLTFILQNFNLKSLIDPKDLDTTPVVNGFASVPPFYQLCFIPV
Sequence of Cytochrome P450 3A4 (P08684 whole entry): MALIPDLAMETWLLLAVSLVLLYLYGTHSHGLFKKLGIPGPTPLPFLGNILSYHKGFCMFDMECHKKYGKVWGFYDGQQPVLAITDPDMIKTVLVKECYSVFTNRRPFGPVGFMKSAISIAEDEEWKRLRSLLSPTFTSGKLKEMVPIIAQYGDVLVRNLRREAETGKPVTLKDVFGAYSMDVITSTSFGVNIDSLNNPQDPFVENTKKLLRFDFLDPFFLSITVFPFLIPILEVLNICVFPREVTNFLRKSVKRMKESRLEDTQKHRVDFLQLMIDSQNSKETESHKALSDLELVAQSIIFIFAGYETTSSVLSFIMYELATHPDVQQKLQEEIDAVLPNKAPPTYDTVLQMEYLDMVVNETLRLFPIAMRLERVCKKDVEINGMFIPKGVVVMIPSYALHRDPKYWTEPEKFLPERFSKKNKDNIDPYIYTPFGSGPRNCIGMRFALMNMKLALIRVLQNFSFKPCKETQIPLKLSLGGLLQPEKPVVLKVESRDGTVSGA
Sequence of Luciferin 4-monooxygenase (P08659 whole entry): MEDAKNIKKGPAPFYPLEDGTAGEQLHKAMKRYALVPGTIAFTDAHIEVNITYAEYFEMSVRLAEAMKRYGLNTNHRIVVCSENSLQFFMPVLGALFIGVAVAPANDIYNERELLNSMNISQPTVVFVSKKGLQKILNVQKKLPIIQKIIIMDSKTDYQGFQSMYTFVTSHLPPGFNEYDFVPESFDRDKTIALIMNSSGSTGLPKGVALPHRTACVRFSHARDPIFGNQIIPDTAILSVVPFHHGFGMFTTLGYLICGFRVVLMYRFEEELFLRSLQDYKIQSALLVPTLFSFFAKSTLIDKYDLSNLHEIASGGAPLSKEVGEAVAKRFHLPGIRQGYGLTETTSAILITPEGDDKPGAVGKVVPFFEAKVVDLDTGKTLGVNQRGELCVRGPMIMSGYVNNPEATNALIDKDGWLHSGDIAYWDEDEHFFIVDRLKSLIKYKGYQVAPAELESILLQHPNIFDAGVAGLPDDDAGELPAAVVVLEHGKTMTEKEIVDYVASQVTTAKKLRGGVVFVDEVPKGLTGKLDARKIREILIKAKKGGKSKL
Sequence of Cytochrome P450 2D6 (P10635 whole entry): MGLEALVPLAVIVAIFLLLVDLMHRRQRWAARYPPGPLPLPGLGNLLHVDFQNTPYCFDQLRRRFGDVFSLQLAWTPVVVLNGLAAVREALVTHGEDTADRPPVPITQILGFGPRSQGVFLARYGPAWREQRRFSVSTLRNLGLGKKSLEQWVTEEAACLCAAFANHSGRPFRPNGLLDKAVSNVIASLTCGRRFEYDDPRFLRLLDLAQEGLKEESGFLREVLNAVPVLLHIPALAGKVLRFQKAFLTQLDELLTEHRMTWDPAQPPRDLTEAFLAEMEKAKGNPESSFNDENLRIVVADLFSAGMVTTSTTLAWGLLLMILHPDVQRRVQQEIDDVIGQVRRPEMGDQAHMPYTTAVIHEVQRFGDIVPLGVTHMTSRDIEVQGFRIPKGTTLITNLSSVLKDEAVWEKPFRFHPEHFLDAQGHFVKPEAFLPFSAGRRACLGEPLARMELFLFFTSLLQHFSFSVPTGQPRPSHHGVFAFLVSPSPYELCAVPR

OC(CON=C1c2ccccc2-c2ccccc21)CN1CCNCC1 (centres undefined)
CC50 [1]: 100 µM (active) | IC50 [2]: 62.7 µM (active)

O=C(Nc1ccc(N2CCOCC2)cc1)c1cn2ccccc2n1
EC50 [3]: 12.3 µM (active) | EC50 [4]: 11.1 µM (active) | EC50 [5]: 4.45 µM (active) | EC50 [6]: 3.25 µM (active) | EC50 [7]: > 150 µM (inconclusive) | EC50 [8]: 12.1 µM (active) | AC50 [9]: 3.09 µM (active)

CCc1ccccc1NC(=O)c1nnn(CC(=O)Nc2cccc(C)c2C)c1N
AC50 ([10]; read-out: AC50): 2 µM (inconclusive) | AC50 [11]: 12.6 µM (inconclusive) | AC50 [12]: 7.08 µM (inconclusive) | AC50 [13]: inconclusive

N=C(NOC(=O)N1c2ccccc2Sc2ccccc21)c1ccccc1
EC50 [14]: > 160 µM (inactive) | EC50 [15]: 1.22 µM (active) | EC50 [16]: 0.814 µM (active) | EC50 [17]: > 60 µM (not active) | CC50 [1]: 100 µM (active)

O=C(Nc1ncc(Cc2cccc(Cl)c2)s1)C1=NCCN1
AC50 [10]: inconclusive | AC50 [11]: 31.6 µM (inconclusive) | AC50 [13]: inconclusive

COc1ccc(CSc2nc(O)c3ccccc3n2)cc1F
IC50 [18]: > 79 µM (inactive)

COc1ccc(N(C(=O)c2cccc([N+](=O)[O-])c2)S(=O)(=O)c2cccs2)cc1
IC50 [18]: > 79 µM (inactive)

N#Cc1c(Oc2ccc3ccccc3c2)sc(C(=O)c2ccccc2)c1N
AC50 [9]: 26.7 µM (active)

O=C1C2C3C=CC(CC3)C2C(=O)N1c1cccc(Br)c1 (centres undefined)
IC50 [18]: > 79 µM (inactive)

c1cc2c3c(cccc3c1)C(N1CCCCC1)=N2
AC50 [19]: 34 µM (active)

Cn1c(SCC(=O)N2CCN(S(=O)(=O)c3ccccc3)CC2)nc2ccccc21
AC50 [20]: 14.1 µM (inconclusive) | AC50 [13]: inconclusive

Cc1nc2c(-c3ccc(Cl)cc3)c(C)nn2c(O)c1Cc1ccccc1
EC50 [16]: 0.938 µM (active) | EC50 [17]: 2.97 µM (active) | AC50 [9]: 9.26 µM (active) | AC50 [21]: 2.5 µM (active)

Cc1n[nH]c(-c2ccc(O)c(C)c2O)c1-c1cnn(-c2ccccc2)c1
EC50 [14]: > 160 µM (inconclusive) | EC50 [15]: > 38 µM (not active) | EC50 [22]: > 260 µM (inactive) | CC50 [1]: 98.9 µM (active) | IC50 [2]: 85.8 µM (active)

O=C(CSC1=NNC(c2ccccn2)S1)Nc1cccc(Cl)c1 (centres undefined)
IC50 [18]: > 79 µM (inactive)

Cc1cccc(NC(=O)c2[nH]cnc2C(=O)NCCCNC(=O)c2nc[nH]c2C(=O)Nc2cccc(C)c2)c1
AC50 [23]: 10.6 µM (active) | IC50 [18]: 26.2 µM (active)

CN(C)CCCNc1nc2cc(-c3cccc(Cl)c3)sc2c(=O)n1C
AC50 [19]: 32.9 µM (active) | AC50 [24]: 4.7 µM (active)

COc1cc2ccnc(C=O)c2cc1OC
IC50 [18]: 14.5 µM (active) | CC50 [25]: > 25 µM (active)

CCN(CC)CCOC(=O)c1cc(Cl)c(N)cc1OC
AC50 [12]: 31.6 µM (inconclusive) | AC50 [13]: inconclusive

C/C(CC(=O)NCc1ccco1)=N\NC(=O)Cc1cccc2ccccc12
AC50 ([10]; read-out: AC50): 25.1 µM (inconclusive) | AC50 [11]: 12.6 µM (inconclusive) | AC50 [13]: inconclusive
